# According to paper PMC2883770 (Journal of natural products, 2009):
# What was measured:
# [1] = test system: MCF-7 human breast cancer cells; experiment: Cytotoxicity assay against MCF-7 cells; format: cell-based
# [2] = test system: HT-29 human colon cancer cells; experiment: Cytotoxicity assay against HT-29 cells; format: cell-based
# [3] = test system: HT-29 cells; experiment: Mitochondrial transmembrane potential; format: cell-based, human; settings: 2 h treatment, JC-1 dye
SMILES,ED50 against MCF-7 cells [1] [µM],ED50 against HT-29 cells [2] [µM],ED50 in mitochondrial transmembrane potential assay [3] [µM]
"CC(=O)O[C@@H]([C@H]1C[C@@H]1C(=O)C(C)OC(=O)/C=C/c1ccc(O)cc1)[C@H]1CC=CC(=O)O1 (stereo partly drawn) [Compound 1, Brevipolide A]",> 10,5.8,–
"CC(=O)O[C@@H]([C@H]1C[C@@H]1C(=O)C(C)OC(=O)/C=C\c1ccc(O)cc1)[C@H]1CC=CC(=O)O1 (stereo partly drawn) [Compound 2, Brevipolide B]",6.1,6.1,–
"CC(OC(=O)/C=C/c1ccc(O)c(O)c1)C(=O)[C@H]1C[C@@H]1[C@H](O)[C@H]1CC=CC(=O)O1 (stereo partly drawn) [Compound 3, Brevipolide C]",–,–,0.0085
"CC(OC(=O)/C=C\c1ccc(O)cc1)C(=O)[C@H]1C[C@@H]1[C@H](O)[C@H]1CC=CC(=O)O1 (stereo partly drawn) [Compound 6, Brevipolide F]",6.7,7.5,–
"COc1ccc(-c2oc3cc(OC)c(O)c(O)c3c(=O)c2OC)cc1O [Compound 8, 5,6,3′-trihydroxy-3,7,4′-trimethoxyflavone]",–,3.6,0.31
